According to PMC6372602, “On-target and off-target effects of novel orthosteric and allosteric activators of GPR84” (Scientific Reports, 2019):
One block for each compound: values may come before it.

Tests used:
human GPR35a = target: T1, human GPR35a (Homo sapiens, UniProt Q9HC97); assay: β-arrestin-2 recruitment BRET, HEK293 cells; assay type: cell-based; conditions: agonist mode
T1 construct: gene GPR35; C-terminal eYFP tag, HEK293 cells co-transfected with luciferase-tagged β-arrestin-2

mouse GPR84-Gαi2 [1] = target: T2, mouse GPR84-Gαi2 (Mus musculus, UniProt Q8CIM5); assay: […]GTPγS binding, membranes; assay type: biochemical; conditions: […] °C, pH […] GDP
T2 construct: N-terminal FLAG-tagged mouse GPR84 fused to Gαi2 (transducer / reporter; silent C636T in Gαi2); doxycycline-inducible Flp-In T-REx 293 cells; membranes

mouse GPR35 = target: T3, mouse GPR35 (Mus musculus, UniProt Q9ES90); assay: β-arrestin-2 recruitment BRET, HEK293 cells; assay type: cell-based; conditions: agonist mode
T3 construct: C-terminal eYFP tag, HEK293 cells co-transfected with luciferase-tagged β-arrestin-2

[2] = target: T4, mouse GPR84 (RAW264.7 cells) (Mus musculus, UniProt Q8CIM5); assay: […]GTPγS binding, membranes; assay type: biochemical; conditions: agonist, LPS-treated cells, […] °C, pH […] GDP
GPR84 (THP-1 cells) [3] = target: T5, GPR84 (THP-1 cells) (Homo sapiens, UniProt Q9NQS5); assay: saturation radioligand binding, membranes; conditions: labelled compound; antagonist; LPS-treated cells; […] °C, pH […]
T5 construct: endogenous receptor in membranes of LPS-treated THP-1 monocytes

human GPR84-Gαi2 [4] = target: T6, human GPR84-Gαi2 (Homo sapiens, UniProt Q9NQS5); assay: […]GTPγS binding, membranes; assay type: biochemical; conditions: partial agonist, allosteric; […] °C, pH […] GDP
T6 construct: doxycycline-inducible Flp-In T-REx 293 cells; membranes

mouse GPR84-Gαi2 [5] = target: T2, mouse GPR84-Gαi2; assay: inhibition of agonist-stimulated […]GTPγS binding, membranes; assay type: biochemical; conditions: antagonist; versus EC80 2-HTP
GPR84 (THP-1 cells) [6] = target: T5, GPR84 (THP-1 cells); assay: as above; assay type: biochemical; conditions: antagonist, non-competitive; LPS-treated cells; versus EC80 2-HTP
[7] = target: T4, mouse GPR84 (RAW264.7 cells); assay: as above; assay type: biochemical; conditions: antagonist; LPS-treated cells; versus EC80 2-HTP
human GPR84-Gαi2 [8] = target: T6, human GPR84-Gαi2; assay: as above; assay type: biochemical; conditions: antagonist, non-competitive; versus EC80 2-HTP

T4 sequence (Q8CIM5 whole entry): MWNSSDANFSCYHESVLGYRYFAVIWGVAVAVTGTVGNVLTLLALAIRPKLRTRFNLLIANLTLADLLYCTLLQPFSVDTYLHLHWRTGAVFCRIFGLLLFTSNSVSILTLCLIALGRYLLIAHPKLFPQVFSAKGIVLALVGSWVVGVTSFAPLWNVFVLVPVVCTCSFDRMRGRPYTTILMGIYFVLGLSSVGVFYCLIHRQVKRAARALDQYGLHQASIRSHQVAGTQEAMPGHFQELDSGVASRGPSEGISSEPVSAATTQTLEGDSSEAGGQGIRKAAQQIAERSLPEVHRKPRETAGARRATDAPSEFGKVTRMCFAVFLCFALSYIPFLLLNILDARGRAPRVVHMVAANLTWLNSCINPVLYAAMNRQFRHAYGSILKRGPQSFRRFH
T3 sequence (Q9ES90 whole entry): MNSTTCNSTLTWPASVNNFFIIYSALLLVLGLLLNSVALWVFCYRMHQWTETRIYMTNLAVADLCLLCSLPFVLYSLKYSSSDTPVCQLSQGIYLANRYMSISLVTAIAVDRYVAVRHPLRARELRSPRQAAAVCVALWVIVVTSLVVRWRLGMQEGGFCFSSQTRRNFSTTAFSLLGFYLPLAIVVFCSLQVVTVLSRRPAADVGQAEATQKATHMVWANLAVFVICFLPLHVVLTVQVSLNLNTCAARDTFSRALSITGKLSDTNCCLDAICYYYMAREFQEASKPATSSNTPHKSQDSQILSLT
T6 sequence (Q9NQS5 whole entry): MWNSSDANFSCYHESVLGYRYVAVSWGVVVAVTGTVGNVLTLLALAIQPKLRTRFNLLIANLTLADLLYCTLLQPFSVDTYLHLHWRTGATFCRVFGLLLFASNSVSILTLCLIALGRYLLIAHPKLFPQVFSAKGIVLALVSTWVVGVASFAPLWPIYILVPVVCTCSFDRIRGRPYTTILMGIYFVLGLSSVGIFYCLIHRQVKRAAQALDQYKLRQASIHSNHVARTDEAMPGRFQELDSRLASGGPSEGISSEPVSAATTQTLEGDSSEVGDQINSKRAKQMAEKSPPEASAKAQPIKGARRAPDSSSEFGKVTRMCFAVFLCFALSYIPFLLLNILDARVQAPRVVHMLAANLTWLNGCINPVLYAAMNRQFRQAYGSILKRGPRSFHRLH
T5 sequence (Q9NQS5 whole entry): as above
T1 sequence (Q9HC97 whole entry): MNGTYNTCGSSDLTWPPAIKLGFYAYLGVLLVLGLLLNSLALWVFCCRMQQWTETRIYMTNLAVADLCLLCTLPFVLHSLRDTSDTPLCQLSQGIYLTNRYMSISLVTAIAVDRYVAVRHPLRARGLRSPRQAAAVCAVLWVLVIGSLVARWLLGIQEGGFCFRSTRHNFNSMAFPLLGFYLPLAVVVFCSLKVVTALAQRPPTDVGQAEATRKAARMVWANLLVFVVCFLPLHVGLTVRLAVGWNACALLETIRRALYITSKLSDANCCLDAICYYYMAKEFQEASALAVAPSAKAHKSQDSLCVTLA

pEC50 (mouse GPR84-Gαi2 [1]; agonist): 7.52 ± 0.11
pEC50 [2]: 7.58 ± 0.08
Compound: CCCCCCSc1nc(O)cc(O)n1 [2-HTP, 2-(hexylthiol)pyrimidine-4,6 diol]
β-arrestin-2 recruitment BRET, HEK293 cells (human GPR35a): 2-HTP was also unable to activate human GPR35
β-arrestin-2 recruitment BRET, HEK293 cells (mouse GPR35): neither PSB-16671 nor 2-HTP was able to activate mouse GPR35

Kd (GPR84 (THP-1 cells) [3]): 0.18 ± 0.02 nM
Compound: [^3H]9543

pEC50 (mouse GPR84-Gαi2 [1]; agonist, allosteric): 6.53 ± 0.07
pEC50 ([2]; allosteric): 6.75 ± 0.10
Compound: Fc1cc(F)c2[nH]cc(Cc3c[nH]c4c(F)cc(F)cc34)c2c1 [PSB-16671, di(5,7-difluoro-1H-indole-3-yl)methane]
β-arrestin-2 recruitment BRET, HEK293 cells (mouse GPR35): neither PSB-16671 nor 2-HTP was able to activate mouse GPR35

pEC50 (mouse GPR84-Gαi2 [1]; partial agonist, allosteric): 5.37 ± 0.08
Compound: c1ccc2c(Cc3c[nH]c4ccccc34)c[nH]c2c1 [DIM]
EC50 (human GPR84-Gαi2 [4]): Equivalent studies using DIM confirmed the higher potency of PSB-16671

pIC50 (mouse GPR84-Gαi2 [5]): 6.90 ± 0.05
pIC50 (GPR84 (THP-1 cells) [6]): 7.86 ± 0.02
pIC50 [7]: 6.50 ± 0.06
pIC50 (human GPR84-Gαi2 [8]): 8.14 ± 0.06
Compound: O=c1nc(OCC2COCCO2)cc2n1CCc1cc(C#CCNc3ccccc3)ccc1-2 (centres unmarked) [compound 107, 2-([1,4]dioxan-2-ylmethoxy)-9-(3-phenylamino-prop-1-ynyl)-6,7-dihydro-pyrimido[6,1-a]isoquinolin-4-one]
